Patent publication US20090269281A1, “Calcium/Calmodulin-Dependent Protein Kinase Kinase as a Control Point for Cardiac Hypertrophy” (University of North Texas Health Science Center at Fort …, priority 2007, published 2009)
Entries after “also recorded” stand apart in the source; their conditions may differ.

Legend:
[1] = tested on: ANF, SkA and MEF2 reporters; experiment: UII-stimulated ANF, SkA and MEF2 luciferase reporter assay in cardiomyocytes; type: cell-based, rat; conditions: AdUIIR-infected cardiomyocytes; inhibitor 1 h prior to UII 100 nM; STO-609 250 ng/mL, SB203580 10 μM, U0126 10 μM, AKTi 5 μM
Text: (§1) Cell Culture and Treatments. […] Plasmids and Adenoviral Constructs.
Transient Transfection and Luciferase Assay.

[2] = tested on: ANF, BNP, αMHC and SkA mRNA; experiment: Semi-quantitative RT-PCR of hypertrophy marker genes in cardiomyocytes; type: cell-based, rat; conditions: AdUIIR-infected cardiomyocytes; UII 100 nM, STO-609 250 ng/mL, 48 h
Method: as §1
Reverse Transcription and Semi-quantitative PCR—Cardiomyocytes were cultured in 100-mm dishes at a density of 1×10^5 cells/cm^2. 24 h post-plating, cells were treated as indicated. Following treatment, total RNA was isolated with TRIzol® reagent (Invitrogen) cDNA was synthesized using Super-Script™III (Invitrogen) per the manufacturer's instructions. Semi-quantitative PCR was then performed using gene-specific primers for UIIR, hypertrophy marker genes and glyceraldehyde-3-phosphate dehydrogenase (GAPDH) (Integrated DNA Technologies). Sequences of gene-specific primers were as follows: for UIIR, sense 5′-[…]-3′ (SEQ ID NO: 1) and antisense 5′-[…]-3′ (SEQ ID NO: 2); for ANF, sense 5′-[…]-3′ (SEQ ID NO: 3) and antisense 5′-[…]-3′ (SEQ ID NO: 4); for BNP sense, 5′-[…]-3′ (SEQ ID NO: 5) and anti-sense 5′-[…]-3′ (SEQ ID NO: 6); for αMHC sense, 5′-[…]-3′ (SEQ ID NO: 7) and antisense 5′-[…]-3′ (SEQ ID NO: 8); for SkA sense, 5′-[…]-3′ (SEQ ID NO: 9) and antisense 5′-[…]-3′ (SEQ ID NO: 10); and for GAPDH sense, 5′-[…]-3′ (SEQ ID NO: 11) and antisense 5′-[…]-3′ (SEQ ID NO: 12).

CaMKI = experiment: Western blot of CaMKI phosphorylation (phospho-Thr178) in cardiomyocytes; type: cell-based, rat; conditions: AdUIIR-infected cardiomyocytes; UII with STO-609 for 2 or 5 min
Method: as §1
(§2) Western Blot Analysis and Immunoprecipitations. Cardiomyocytes were cultured in 100-mm dishes as described in the previous section. 24 h post-plating, cells were treated with UII and various pharmacological inhibitors as indicated. Following treatment, cells were lysed, and the relative abundance of UIIR, active p38 and ERK1/2, and active PKD was determined with commercially-available antibodies (Alpha Diagnostic, and Cell Signaling Technologies, Inc., respectively). The antibody for CaMKI was obtained from T. Soderling (Vollum Institute, Oregon Health Sciences University, Portland Oreg.).
UII stimulation results in the activation of CaMKI. […] One of the major downstream effectors of CaMKK is CaMKI. In addition to calcium/calmodulin, CaMKI requires phosphorylation by CaMKK to be active. To determine whether UII activates CaMKI, AdUIIR-infected cardiomyocyte cultures were treated with UII for various times up to 60 min, and whole cell lysates were collected and the phosphorylation status of CaMKI was measured by Western blot analysis by using an antibody that recognizes the active form of CaMKI (phospho-Thr178). […] CaMKI remained phosphorylated and active through 60 min of UII stimulation. Thus, UII activates CaMKI in cardiomyocytes.

p38 and ERK1/2 = experiment: Western blot of p38 and ERK1/2 phosphorylation in cardiomyocytes; type: cell-based, rat; conditions: AdUIIR-infected cardiomyocytes; UII with STO-609 for 5 min
Method: as §1, §2
UII-dependent activation of p38 and ERK1/2 requires CaMKK. MAP kinases play an important role in mediating intracellular signaling. They are involved in cellular processes such as hypertrophy (7-10, 53, 54). More interesting, cross talk has been reported between the CaMKs and the MAPKs in neurons (11). There are three distinct families of MAP kinases (ERKs, p38s, and JNKs)(55). […] Next, whether UII stimulation of the MAP kinases was dependent on CaMKK was determined. AdUIIR-infected cardiomyocyte cultures were treated with UII for various times up to 60 min, and the phosphorylation status of p38 and ERK MAPKs were measured by Western blot analysis using antibodies that detect the active (phosphorylated) forms of these kinases.

[3] = tested on: HDAC5/14-3-3β association; experiment: Immunoprecipitation of 14-3-3β and detection of bound HDAC5 in cardiomyocytes; type: cell-based, rat; conditions: AdUIIR-infected cardiomyocytes; inhibitor 1 h prior to UII, 60 min
Method: as §1
For immunoprecipitation studies, Cardiomyocytes were cultured in 100-mm as described in the previous section. 24 h post-plating, cells were treated with UII and various pharmacological inhibitors as indictated. Following treatment, 14-3-3β was immunoprecipitated from whole cell lysate using a commercially available antibody (Abcam) and a protein G immunoprecipitation kit (IP50 Kit, Sigma, following manufacturer's protocol). HDAC5 was detected using a commercially-available antibody (Cell Signaling Technologies, Inc.).
UII stimulation induces association of HDAC5 with 14-3-3β in a CaMKK dependent manner. The activity of MEF2 is controlled, in part, by its association with class II HDACs in the nucleus. Class II HDACs repress the activity of MEF2-sensitive promoters by local deacetylation of nucleosomal histones causing the condensation of chromatin. The repressive influence of HDACs on MEF2 can be relieved by CaMK-dependent phosphorylation of HDACs, which results in their dissociation from MEF2. The dissociation of HDACs from MEF2 is accompanied by 14-3-3-mediated nuclear export of the HDACs. We have shown that UII stimulates the activity of MEF2. Next, to determine whether UII stimulates HDAC5 association with 14-3-3β, AdUIIR-infected cardiomyocytes were treated with UII for various times up to 60 min, and 14-3-3β was pulled down from the whole cell lysate by using an antibody specific for 14-3-3β and protein G agarose. HDAC5 was detected using a specific antibody.

PKD [4] = experiment: Western blot of PKD phosphorylation (phospho-Ser744/748) in cardiomyocytes; type: cell-based, rat; conditions: AdUIIR-infected cardiomyocytes; UII with STO-609 for 2 or 5 min
Method: as §1, §2
UII activates PKD in a CaMKK dependent manner. A parallel pathway involving PKD phosphorylatea HDACs resulting in their 14-3-3-dependent translocation […] (19). […] Next, it was determined whether UII stimulation could activate PKD which would account for the UII-induced HDAC5 translocation […] possibly working in conjunction with CaMKI. To determine whether UII activates PKD, AdUIIR-infected cardiomyocyte cultures were treated with UII for various times up to 60 min, and whole cell lysates were collected and the phosphorylation status of PKD was measured by Western blot analysis by using an antibody that recognizes the active form of PKD (phospho-Ser744/748). […]

ERK1/2 = experiment: Western blot of AngII or Et-1 stimulated ERK1/2 phosphorylation in cardiomyocytes; type: cell-based, rat; conditions: AngII 100 nM or Et-1 10 nM for 10 min; STO-609 250 ng/mL
Method: (§3) Whole cell lysates were subjected to Western blotting to determine the relative change in phosphorylation of ERK1/2 (FIG. 7A) or PKD (FIG. 7B). Western Blot Analysis and Immunoprecipitations. […] Following treatment, cells were lysed, and the relative abundance of UIIR, active p38 and ERK1/2, and active PKD was determined with commercially-available antibodies (Alpha Diagnostic, and Cell Signaling Technologies, Inc., respectively). The antibody for CaMKI was obtained from T. Soderling (Vollum Institute, Oregon Health Sciences University, Portland Oreg.).

PKD [5] = experiment: Western blot of AngII or Et-1 stimulated PKD phosphorylation in cardiomyocytes; type: cell-based, rat; conditions: AngII 100 nM or Et-1 10 nM for 10 min; STO-609 250 ng/mL
Method: as §3

CaMKKa = CaMKKa (Rattus norvegicus, UniProt P97756); conditions: cited from earlier work
CaM-KI = CaM-KI (Homo sapiens, UniProt Q14012); conditions: cited from earlier work
CaM-KIV = molecular target: T1, CaM-KIV (Homo sapiens, UniProt Q16566); conditions: cited from earlier work
T1 sequence (Q16566 1-473): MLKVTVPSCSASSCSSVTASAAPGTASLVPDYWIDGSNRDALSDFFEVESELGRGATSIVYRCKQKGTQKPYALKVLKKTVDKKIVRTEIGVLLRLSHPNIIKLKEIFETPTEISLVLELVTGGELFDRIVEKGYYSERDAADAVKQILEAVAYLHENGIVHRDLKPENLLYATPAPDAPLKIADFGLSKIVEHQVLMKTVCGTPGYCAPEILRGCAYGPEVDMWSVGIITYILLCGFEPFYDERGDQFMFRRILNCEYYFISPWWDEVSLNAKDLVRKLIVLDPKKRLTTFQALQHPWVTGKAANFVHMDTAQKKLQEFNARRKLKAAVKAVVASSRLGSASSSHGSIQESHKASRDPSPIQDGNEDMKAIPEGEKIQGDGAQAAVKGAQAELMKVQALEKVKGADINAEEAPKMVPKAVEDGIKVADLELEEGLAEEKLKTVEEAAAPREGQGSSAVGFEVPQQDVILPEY

PKA = conditions: cited from earlier work
PKC = conditions: cited from earlier work
p42 MAP kinase = p42 MAP kinase (Homo sapiens, UniProt P28482); conditions: cited from earlier work
[6] = tested on: ANF, SkA and MEF2 reporters; conditions: cardiomyocytes co-transfected with CaMKI; SB203580 10 μM or U0126 10 μM
Method: Cell Culture and Treatments. Cardiomyocytes were isolated from 2-4 day old Sprague-Dawley rats using the neonatal cardiomyocyte isolation system (Worthington Biolabs) based on a previously described protocol (45). Cells were plated in medium 199 supplemented with 10% fetal bovine serum (FBS, Atlanta Biologicals) and gentamycin (Fisher). Cells were maintained in medium 199 supplemented with 1.0% FBS and gentamycin. Prior to any treatment, cardiomyocyte cultures were incubated in medium 199 containing 0.2% serum for 24 hours. […] Cells were incubated in medium 199 containing 0.2% FBS prior to stimulation with the indicated reagents for reporter assays, RT-PCR, western blotting and immunoprecipitation.
Transient Transfection and Luciferase Assay. For transfections, cardiomyocytes were cultured in 12-well tissue culture plates as described. Once cultures were incubated in medium 199 with 0.2% serum for 24 hours, cultures were either infected with AdUIIR as described or were just transfected. […] Cardiomyocyte cultures were harvested 24-72 hours post treatment (per sample) and luciferase activity was determined by luminometry (Model TD 20/20 Luminometer, Turner Designs, Sunnyvale, Calif.) using a commercially available kit (Luciferase Substrate, Promega, Madison, Wis.).

UIIR = UIIR expression in cardiomyocytes treated with hypertrophic agonists (RT-PCR, western blot); type: cell-based, rat; conditions: for UIIR mRNA expression: 10 μM PE or 100 nM AngII for 24 hours, RT-PCR; for UIIR protein expression: PE or AngII, western blot
Method: Cardiomyocytes were cultured in medium containing 0.2% FBS and either PE (10 μM) or AngII (100 nM) for 48 hours. Total RNA was isolated and reverse transcribed. cDNA was used as template to amplify UIIR. […] Cardiomyocytes were cultured in medium containing 0.2% FBS and either PE (10 μM) or AngII (100 nM) for 48 hours. Total protein was isolated and UIIR detected by western blot.
Expression of UIIR in myocytes treated with hypertrophic agonists. In order to validate the array data, we designed PCR primers to amplify UIIR. Cardiomyocyte cultures were treated with 10 μM PE or 100 nM AngII for 24 hours and total RNA was extracted following the Trizol protocol (Invitrogen). Total RNA was then used for template for reverse transcription. The cDNA generated from the RT reaction was then used as template to amplify UIIR and GAPDH as control.
To this end, we stimulated cardiomyocyte cultures with AngII and PE as before and isolated total protein. The total protein was resolved by PAGE (12% acrylamide), transferred to nitrocellulose, and blotted for UIIR using a specific antibody.

Chain of CaM-KI (Q14012 whole entry, species assumed): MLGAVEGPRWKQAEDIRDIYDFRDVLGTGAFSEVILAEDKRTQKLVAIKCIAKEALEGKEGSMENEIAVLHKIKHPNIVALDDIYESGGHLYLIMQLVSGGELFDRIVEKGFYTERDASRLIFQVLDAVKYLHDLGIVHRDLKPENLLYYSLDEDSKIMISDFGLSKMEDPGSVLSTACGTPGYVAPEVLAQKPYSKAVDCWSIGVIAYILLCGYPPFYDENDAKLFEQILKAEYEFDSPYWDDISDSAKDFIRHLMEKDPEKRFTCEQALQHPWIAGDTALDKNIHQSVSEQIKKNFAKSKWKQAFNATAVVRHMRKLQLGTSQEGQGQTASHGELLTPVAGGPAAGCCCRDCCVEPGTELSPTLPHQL
Chain of p42 MAP kinase (P28482 whole entry): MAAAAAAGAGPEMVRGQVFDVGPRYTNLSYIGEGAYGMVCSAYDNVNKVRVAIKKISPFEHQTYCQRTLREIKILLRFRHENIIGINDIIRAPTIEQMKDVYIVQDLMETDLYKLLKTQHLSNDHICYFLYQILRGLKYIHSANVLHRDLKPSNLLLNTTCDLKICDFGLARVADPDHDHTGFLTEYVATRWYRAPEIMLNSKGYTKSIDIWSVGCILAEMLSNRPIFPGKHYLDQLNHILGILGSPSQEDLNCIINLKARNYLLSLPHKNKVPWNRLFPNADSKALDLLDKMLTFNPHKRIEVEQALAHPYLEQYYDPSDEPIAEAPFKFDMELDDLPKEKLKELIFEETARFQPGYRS
Chain of CaMKKa (P97756 whole entry): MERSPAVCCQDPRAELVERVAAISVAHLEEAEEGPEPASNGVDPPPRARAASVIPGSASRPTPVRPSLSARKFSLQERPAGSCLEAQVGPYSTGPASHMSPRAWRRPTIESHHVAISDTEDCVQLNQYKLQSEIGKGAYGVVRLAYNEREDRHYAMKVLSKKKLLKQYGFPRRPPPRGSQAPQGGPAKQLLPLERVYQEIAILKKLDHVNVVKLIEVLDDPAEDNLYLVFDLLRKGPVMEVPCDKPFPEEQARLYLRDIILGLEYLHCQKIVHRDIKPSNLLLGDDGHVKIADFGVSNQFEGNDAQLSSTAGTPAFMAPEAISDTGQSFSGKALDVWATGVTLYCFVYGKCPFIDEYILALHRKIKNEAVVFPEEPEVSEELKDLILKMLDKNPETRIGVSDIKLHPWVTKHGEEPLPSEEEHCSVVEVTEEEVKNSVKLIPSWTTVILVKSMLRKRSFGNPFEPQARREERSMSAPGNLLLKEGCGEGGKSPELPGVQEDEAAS

Row | Compound | effect of inhibitor on UII activation of ANF, SkA and MEF2 reporter luciferase activity [1] | effect of inhibitor on UII-induced association of HDAC5 with 14-3-3β [3] | effect of inhibitor on CaMKI activation of ANF, SkA and MEF2 reporter luciferase activity [6] | UIIR mRNA expression (UIIR) | UIIR protein expression (UIIR) | also measured
1 | O=C(O)c1ccc2c3c1cccc3c(=O)n1c3ccccc3nc21 [STO-609, 7-H-Benz[de]benzimidazo[2,1-a]isoquinoline-7-one-3-carboxylic acid] | completely blocked; also recorded: UII was incapable of stimulating any of the reporters | loss of UII-induced association of HDAC5 with 14-3-3β; also recorded: decreased association of HDAC5 with 14-3-3β |  |  |  | effect of inhibitor on UII-stimulated hypertrophy marker gene mRNA expression (ANF, BNP, αMHC, SkA) [2]: UII was unable to stimulate hypertrophy marker gene expression over control; also recorded: UII was unable to stimulate the expression of ANF, BNP, αMHC or SkA; effect of inhibitor on UII-dependent activation (phosphorylation) of CaMKI (CaMKI): UII was unable to stimulate CaMKI; also recorded: inhibited; effect of inhibitor on UII-dependent phosphorylation of p38 and ERK1/2 (p38 and ERK1/2): UII was unable to stimulate p38 or ERK1/2; effect of inhibitor on UII-dependent phosphorylation of PKD (PKD [4]): UII was unable to stimulate PKD; effect of inhibitor on AngII and Et-1 activation of ERK1/2 (ERK1/2): CaMKK is required for AngII and Et-1 activation of ERK1/2 and PKD; effect of inhibitor on AngII and Et-1 activation of PKD (PKD [5]): CaMKK is required for AngII and Et-1 activation of ERK1/2 and PKD; IC50 (CaMKKa): 0.382 µM; IC50 (CaM-KI): > 31.8 µM; IC50 (CaM-KIV): > 31.8 µM; IC50 for PKA (PKA): > 10 µg/mL; IC50 for PKC (PKC): > 10 µg/mL; IC50 (p42 MAP kinase): > 31.8 µM
2 | N#CC(=C(/N)Sc1ccccc1N)/C(C#N)=C(\N)Sc1ccccc1N [U0126] | completely blocked | loss of UII-induced association of HDAC5 with 14-3-3β; also recorded: reduced UII-dependent association with 14-3-3β | completely blocked |  |  | 
3 | CNC[C@H](O)c1cccc(O)c1 [PE, phenylephrine] |  |  |  | up-regulated the UIIR messenger RNA | up-regulation of UIIR | 
4 | C[S+]([O-])c1ccc(-c2nc(-c3ccncc3)c(-c3ccc(F)cc3)[nH]2)cc1 (stereo not drawn) [SB203580] | completely blocked | no effect | completely blocked |  |  | 
5 | angiotensin II (DRVYIHPF; Angiotensin-2; UniProt P01019 25-32, looked up) [AngII, humoral hypertrophic agonist acting on the Gq-coupled angiotensin II receptor] |  |  |  | up-regulated the UIIR messenger RNA | up-regulation of UIIR | 
